Source: US9149455B2, “Methods of treating melanoma” (Abraxis BioScience, LLC, priority 2012, dated 2015)

Key:
[1] = tested on: stage IV cutaneous metastatic malignant melanoma; assay: Phase 3 study of Nab-paclitaxel versus dacarbazine in chemotherapy-naive patients, efficacy; assay type: in vivo, human
From the text: Chemotherapy-naïve patients with stage IV cutaneous metastatic malignant melanoma were enrolled. The patients had Eastern Cooperative Oncology Group (ECOG) PS 0-1, measurable disease, and lactate dehydrogenase (LDH) levels ≦2.0× Upper Limit of Normal (ULN), and had no current brain metastases.
The primary efficacy endpoint was progression-free survival (“PFS”) based on a blinded radiology assessment (according to Response Evaluation Criteria in Solid Tumors (“RECIST”) v1.0). The secondary efficacy endpoint was overall survival (“OS”). Other endpoints included objective response rate (“ORR”), disease control rate (“DCR”), and safety/tolerability.

[2] = Phase 3 study of Nab-paclitaxel versus dacarbazine, treatment-related adverse events; assay type: in vivo, human
metastatic melanoma = settings: advanced melanoma; Finn L et al., BMC Medicine 2012; cited from earlier work
[3] = Grade ≧3 treatment-related adverse events

Compound: CN(C)/N=N/c1[nH]cnc1C(N)=O [Dacarbazine, dacarbazine]
- Median OS (interim) ([1]; BRAF V600E Mutation subgroup): 11.2 months
- Median PFS ([1]; BRAF V600E Mutation subgroup): 3.5 months
- Median OS (interim) ([1]; BRAF Wild Type subgroup): 11.1 months
- Median PFS ([1]; BRAF Wild Type subgroup): 2.5 months
- Median OS (interim) ([1]; BRAF status Unknown subgroup): 9.9 months
- Median PFS ([1]; BRAF status Unknown subgroup): 2.2 months
- progression free survival (PFS) by independent radiology review ([1]; all patients, Nab-paclitaxel 150 mg/m^2 iv days 1, 8, 15 of 28-day cycle vs dacarbazine 1000 mg/m^2 iv day 1 of 21-day cycle, RECIST v1.0, P=0.044): 2.5 months
- Median OS, planned interim analysis ([1]; all patients, at time of PFS analysis, 64% of patients had an event): 10.7 months
- Best Response: Not Evaluable ([1]; blinded radiology assessment): 25%
- Best Response: PD ([1]; blinded radiology assessment): 48%
- Best Response: SD ([1]; blinded radiology assessment): 16%
- DCR ([1]; blinded radiology assessment): 27%
- ORR ([1]; blinded radiology assessment): 11%
- PR (listed under DCR) ([1]; blinded radiology assessment): 11%
- Best Response: PR ([1]; blinded radiology assessment, confirmed): 11%
- Alopecia ([2]; Grade ≧3 TRAE): 0%
- Anemia ([2]; Grade ≧3 TRAE): 5%
- Fatigue ([2]; Grade ≧3 TRAE): 2%
- Leukopenia ([2]; Grade ≧3 TRAE): 7%
- Lymphocytopenia ([2]; Grade ≧3 TRAE): 11%
- Neutropenia ([2]; Grade ≧3 TRAE): 10%
- Peripheral Neuropathy ([2]; Grade ≧3 TRAE): 0%
- Thrombocytopenia ([2]; Grade ≧3 TRAE): 6%
- Patients with at least 1 TRAE [2, 3]: 28%
- Patients with at least 1 serious TRAE [2, 3]: 7%

Compound: CCCS(=O)(=O)Nc1ccc(F)c(C(=O)c2c[nH]c3ncc(-c4ccc(Cl)cc4)cc23)c1F [vemurafenib]
- toxicity (metastatic melanoma): low toxicity

Compound: Ipilmumab: anti-CTLA-4 antibody, FDA approved 2011 for advanced melanoma
- improvement of median survival time (metastatic melanoma): two
